Test results: US20090175882A1, “METHODS AND COMPOSITIONS FOR TREATING HYPERALGESIA” (IRM LLC, priority 2006, published 2009)

Experiments:
[1] = biological target: T1, mouse TRPA1 (Mus musculus, UniProt Q8BLA8); assay: Whole-cell electrophysiology of TRPA1-expressing CHO cells (pressure, hyperosmolarity, cold); format: cell-based; conditions: data not shown
T1 construct: expressed in transfected cells; host or cells: CHO cells (tetracycline-induced for PatchXpress; mTRPA1-pcDNA5 named for the transient labelling experiment)
T1 sequence (Q8BLA8 whole entry): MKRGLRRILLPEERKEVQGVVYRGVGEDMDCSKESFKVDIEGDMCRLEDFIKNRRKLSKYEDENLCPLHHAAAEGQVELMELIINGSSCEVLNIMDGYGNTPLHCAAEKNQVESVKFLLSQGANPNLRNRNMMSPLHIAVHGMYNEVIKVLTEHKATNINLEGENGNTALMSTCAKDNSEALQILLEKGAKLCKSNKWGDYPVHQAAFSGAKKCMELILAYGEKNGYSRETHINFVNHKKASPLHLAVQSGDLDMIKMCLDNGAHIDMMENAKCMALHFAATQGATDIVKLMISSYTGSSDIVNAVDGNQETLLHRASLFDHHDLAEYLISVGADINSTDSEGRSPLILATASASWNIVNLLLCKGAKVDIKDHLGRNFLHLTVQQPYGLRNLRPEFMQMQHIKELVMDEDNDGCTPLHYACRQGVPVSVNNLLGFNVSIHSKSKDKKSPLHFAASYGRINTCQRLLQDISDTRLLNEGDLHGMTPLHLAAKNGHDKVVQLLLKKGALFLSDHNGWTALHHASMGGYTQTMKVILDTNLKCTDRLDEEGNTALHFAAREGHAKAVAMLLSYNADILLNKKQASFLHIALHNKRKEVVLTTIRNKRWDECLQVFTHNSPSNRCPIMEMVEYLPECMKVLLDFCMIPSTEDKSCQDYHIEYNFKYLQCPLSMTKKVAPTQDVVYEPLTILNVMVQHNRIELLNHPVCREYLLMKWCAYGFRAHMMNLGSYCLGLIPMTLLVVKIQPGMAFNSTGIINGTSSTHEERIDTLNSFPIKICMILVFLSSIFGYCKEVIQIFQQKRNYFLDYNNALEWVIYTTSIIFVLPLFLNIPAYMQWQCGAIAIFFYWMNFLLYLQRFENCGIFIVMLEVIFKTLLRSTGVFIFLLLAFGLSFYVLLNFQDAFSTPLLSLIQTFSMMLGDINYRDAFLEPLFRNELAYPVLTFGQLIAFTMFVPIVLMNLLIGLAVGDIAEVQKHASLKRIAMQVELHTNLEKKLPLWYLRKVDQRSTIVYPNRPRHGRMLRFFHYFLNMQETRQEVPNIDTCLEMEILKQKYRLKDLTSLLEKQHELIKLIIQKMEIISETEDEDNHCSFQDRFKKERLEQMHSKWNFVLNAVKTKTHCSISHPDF
Excerpt: We tested if TRPA1 is activated by mechanical forces. The electrophysiological behavior of thermoTRP-expressing Chinese Hamster Ovary (CHO) cells was investigated with two different assays of mechanical stress—pressure application using the recording pipette and changes in external osmolarity.
Mechanosensory neurons are often classified as high- or low-threshold, characterizing responses to pain and touch, respectively. We tested the mechanical threshold of TRPA1 by applying a wide range of negative pipette pressures (FIG. 1C). TRPA1-expressing CHO cells are activated at −90 mmHg or higher, consistent with native high-threshold mechanical receptors involved in sensing pain (Cho et al., J Neurosci 22:1238, 2002). […] Gadolinium (Gd^3+) is considered a blocker of native mechanically-gated ion channels in animal tissues (Martinac et al., Physiol Rev 81:685, 2001). […] FM1-43 is a styryl dye that specifically labels sensory cells by entering through open transduction channels. […] Furthermore, it was observed that 10 μM of FM1 -43 was able to block cinnamaldehyde-induced currents in TRPA1-expressing CHO cells (n=8).
To ensure that the mechanical response we observe is not an artifact of heterologous expression system, we tested if native TRPA1-expressing neurons also respond to such stimuli. 5/6 cinnamaldehyde-sensitive (presumptive TRPA1-expressing) DRG neurons responded to an application of −200 mmHg of suction, while 0/21 cinnamaldehyde insensitive neurons responded (16 of 21 were capsaicin-sensitive) (FIG. 2B). Millimolar camphor was recently reported to inhibit basal currents and cold or agonist-activation of TRPA1.
Mammalian cell electrophysiology: ThermoTRP-expressing CHO cells (rat TRPV1, rat TRPV2, mouse TRPV3, rat TRPV4, mouse TRPM8, and mouse TRPA1), control CHO cells, and cultured rat DRG neurons were prepared as described in Story et al., Cell 112:819, 2003; and Bandell et al., Neuron 41:849, 2004. Electrophysiological recordings were performed as described in Bandell et al., Neuron 41:849, 2004. Briefly, CHO cells were clamped at −60 mV and 0.8 second ramps from −80 mV to +80 mV were run every 4 seconds. Currents from DRG neurons were recorded at −60 mV and for their current-voltage curve, 300 ms voltage step at +20 mV was used 40 ms before 800 ms ramp from -80 mV to +80 mV to minimize contamination of voltage gated Na^+ or Ca^2+ current. The pipette solution for temperature and hyperosmotic experiments consisted of (in mM) 140 CsCl, 5 EGTA, 10 HEPES, 2 MgATP, 0.2 NaGTP, titrated to pH 7.4 with CsOH. The base external solution for these experiments consisted of (in mM) 140 NaCl, 5KCl, 10 HEPES, 2CaCl2, 1MgCl2, titrated to pH 7.4 with NaOH. Mannitol was used to adjust osmolarity for hypertonic solutions. For mouse TRPV3 and rat TRPV2, external calcium was replaced with 5 mM EGTA. Gluconate was substituted for chloride in (±)-pressure and hypotonic experiments to eliminate the potential for endogenous swelling-activated chloride currents. For these experiments, pipette solution (295 mOsm) consisted of (in mM) 125 Cs-gluconate, 15CsCl, 5 EGTA, 10 HEPES, 2 MgATP, 0.2NaGTP, titrated to pH 7.4 with CsOH. The external solution consisted of (in mM) 90 Na-gluconate, 10 NaCl, 5 K-gluconate, 10 HEPES, 2 CaCl2, 1 MgCl2, titrated to pH 7.4 with NaOH. Osmolarity was adjusted with mannitol to 220 mOsm (hypotonic) or 298 mOsm 15 (isotonic). (±)-Pressure was hydrostatically delivered by the recording pipette using syringe pumping (Hamill et al., Annu Rev Physiol 59:621, 1997) and monitored through Pressure Monitor (World Precision Instruments). Warner temperature controller (TC-324B and CL-100) was used for the heating or cooling the perfused bath solutions. […] The number of cells (n) tested with -100 mmHg to −300 mmHg, ˜+100 mmHg, 450 mOsm, and 220 mOsm for each cell type, respectively, are: CHO cells, n=7, 14, 5, 12; TRPV1, n=6, 5, 7, 5; TRPV2, n=4, 5, 3, 5; TRPV3, n=3, 2, 3, 0; TRPM8, n=12, 4, 10, 0. […]

[2] = biological target: T2, TRPV3 (Mus musculus, UniProt Q8K424); assay: ThermoTRP selectivity test; format: cell-based; conditions: at 50 μM (data not shown)
T2 construct: expressed in transfected cells; not restated for the selectivity test
T2 sequence (Q8K424 1-791): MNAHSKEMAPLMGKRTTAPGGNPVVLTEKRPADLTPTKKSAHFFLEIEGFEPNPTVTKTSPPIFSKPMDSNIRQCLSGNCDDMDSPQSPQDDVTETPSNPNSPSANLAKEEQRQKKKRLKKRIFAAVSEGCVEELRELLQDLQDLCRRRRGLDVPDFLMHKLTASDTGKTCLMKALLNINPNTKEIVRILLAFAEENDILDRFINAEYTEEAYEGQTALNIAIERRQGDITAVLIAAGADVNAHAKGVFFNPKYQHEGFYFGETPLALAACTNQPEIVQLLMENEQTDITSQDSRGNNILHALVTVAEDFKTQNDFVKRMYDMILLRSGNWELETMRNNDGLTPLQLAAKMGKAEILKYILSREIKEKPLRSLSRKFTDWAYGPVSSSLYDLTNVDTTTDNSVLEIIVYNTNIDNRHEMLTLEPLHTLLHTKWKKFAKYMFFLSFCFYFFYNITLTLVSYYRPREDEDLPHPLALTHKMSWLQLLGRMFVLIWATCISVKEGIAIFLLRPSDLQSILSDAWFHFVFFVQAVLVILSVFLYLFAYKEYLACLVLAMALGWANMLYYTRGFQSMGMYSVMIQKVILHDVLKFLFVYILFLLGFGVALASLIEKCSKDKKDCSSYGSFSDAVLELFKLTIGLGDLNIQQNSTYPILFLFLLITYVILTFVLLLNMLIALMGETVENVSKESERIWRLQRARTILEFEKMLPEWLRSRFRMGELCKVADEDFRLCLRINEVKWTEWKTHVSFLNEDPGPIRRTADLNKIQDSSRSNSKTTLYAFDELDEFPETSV

block of TRPA1 responses in CHO cells induced by cold [1]: blocked | block of TRPA1 responses in CHO cells induced by pressure [1]: blocked | block of TRPV3 [2]: did not block
Compound: CC(=Cc1ccc(Cl)cc1)C(C)=NO [Compound 18, (Z)-4-(4-chlorophynyl)-3-methylbut-3-en-2-oxime]
